# Source: PMC3293897, “Diphenyl Urea Derivatives as Inhibitors of Transketolase: A Structure-Based Virtual Screening” (PLoS ONE, 2012)
# Biological target: T1, Transketolase from cell extract (Homo sapiens, UniProt P29401)
# T1 construct: approximately 300 µg of protein cell extract used for the determination of transketolase enzyme activity; endogenous in cells; host or cells: Cultured cells
# T1 sequence (P29401 1-623): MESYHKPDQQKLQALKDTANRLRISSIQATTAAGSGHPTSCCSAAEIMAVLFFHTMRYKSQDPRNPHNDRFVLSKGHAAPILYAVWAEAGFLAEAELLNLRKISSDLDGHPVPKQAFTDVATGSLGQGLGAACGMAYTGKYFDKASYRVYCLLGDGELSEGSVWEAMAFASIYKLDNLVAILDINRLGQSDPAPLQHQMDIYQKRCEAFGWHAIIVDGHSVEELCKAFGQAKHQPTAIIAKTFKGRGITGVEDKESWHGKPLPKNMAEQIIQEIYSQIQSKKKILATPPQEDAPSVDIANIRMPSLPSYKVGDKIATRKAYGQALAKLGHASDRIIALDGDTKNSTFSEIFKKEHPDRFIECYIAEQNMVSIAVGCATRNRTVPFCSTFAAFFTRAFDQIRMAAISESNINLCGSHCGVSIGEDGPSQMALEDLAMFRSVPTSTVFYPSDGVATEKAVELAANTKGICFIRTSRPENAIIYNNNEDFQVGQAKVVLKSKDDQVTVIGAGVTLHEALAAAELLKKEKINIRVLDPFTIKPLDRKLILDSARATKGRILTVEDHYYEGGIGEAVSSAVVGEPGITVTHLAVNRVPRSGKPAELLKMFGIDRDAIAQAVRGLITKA
# Test: Transketolase activity in cell extract (enzyme-linked NADH oxidation, spectrophotometric/fluorimetric)
# Format: biochemical
# Conditions: not given
# Description: Cell cultures were washed with PBS, detached from the flasks using 0.025% trypsin-EDTA and then resuspended in lysis buffer (1 mM dithiothreitol, 1 mM EDTA, 0.02% Triton X-100, 0.02% sodium deoxycholate, 0.2 mM phenylmethylsulfonyl fluoride, 1% sodium azide and 20 mM Tris-HCl, pH 7.5). Cells were homogenized using a laboratory sonicator (1/2 Liter Branson 200 Ultrasonic bath, 5 min, 40 kHz, 4°C) and immediately ultracentrifuged at 105000×g for 1 hour at 4°C. The supernatant was separated and approximately 300 µg of protein cell extract used for the determination of transketolase enzyme activity using a Cobas Mira Plus chemistry analyzer (HORIBA ABX, Montpellier, France) or a spectrofluorimeter Kontron SFM-25 (Bio-Tek Instruments, VT, United States).
# Transketolase (EC 2.2.1.1) activity was determined using the enzyme linked method described by Smeets and colleagues. Briefly, cell extract and inhibitors were added to a cuvette containing 5 mM MgCl2, 0.2 U×mL^−1 glycerophsphate dehydrogenase-triosephosphate isomerase (from rabbit muscle), 0.2 mM NADH, 0.1 mM thiamine pyrophosphate (TPP) and 50 mM Tris-HCl, pH 7.6 at 37°C. The reaction was initiated by the addition of 300 µL substrate mixture (see below) per mL of cuvette volume. The oxidation of NADH, which is directly proportional to transketolase activity, was followed by the decrease in absorbance at 340 nm (spectrophotometric method) or in fluorescence at 450 nm when excited at 330 nm (fluorimetric method) before and after the addition of the different compounds tested. A blank with all the assay components but the sample was performed in each experiment by measuring the oxidation of NADH. The substrate mixture was prepared by dissolving 50 mM ribose-5-phosphate in 50 mM Tris-HCl, pH 7.6, and adding 0.05 IU ribulose-5-phosphate-3-epimerase (from baker's yeast) and 0.25 IU phosphoriboisomerase (from spinach). The substrate mixture was continuously stirred and heated for 1 hour at 37°C and then kept at −20°C until use.
# Protein concentration of cell extracts was determined using the BCA Protein Assay (Pierce Biotechnology, Rockford, IL) to calculate the specific activity of the transketolase enzyme.
row,SMILES,IC50
1,CCc1ccc(NC(=O)Nc2cccc([N+](=O)[O-])c2)c(CC)c1 [T2D],> 200 µM
2,O=[N+]([O-])c1cccc(NC(=S)Nc2cc(Cl)ccc2O)c1 [T2E],> 200 µM
3,Cc1c(Cl)cccc1NC(=O)Nc1ccc(CC(=O)O)cc1 [T2C],> 200 µM
4,Cc1c(Cl)cccc1NC(=O)Nc1cccc(O)c1 [T2F],> 200 µM

# The remaining lines, values ahead:
row,IC50,SMILES
1,150 µM,Cc1ccc([N+](=O)[O-])cc1NC(=O)Nc1cccc2c(O)cccc12 [T2A]
2,200 µM,Cc1c(Cl)cccc1NC(=O)Nc1cc([N+](=O)[O-])ccc1O [T2]

# Same assay, conditions: Figure 2 grouping
row,SMILES,inhibitory activity class (Figure 2)
1,O=C(Nc1ccccc1)Nc1cc(Cl)c([N+](=O)[O-])cc1O [T2B],Actives
2,CCc1ccc(NC(=O)Nc2cccc([N+](=O)[O-])c2)c(CC)c1 [T2D],Inactives
3,O=[N+]([O-])c1cccc(NC(=S)Nc2cc(Cl)ccc2O)c1 [T2E],Inactives
4,Cc1c(Cl)cccc1NC(=O)Nc1ccc(CC(=O)O)cc1 [T2C],Inactives
5,Cc1c(Cl)cccc1NC(=O)Nc1cccc(O)c1 [T2F],Inactives

# The remaining lines, values ahead:
row,inhibitory activity class (Figure 2),SMILES
1,Actives,Cc1ccc([N+](=O)[O-])cc1NC(=O)Nc1cccc2c(O)cccc12 [T2A]
2,Actives,Cc1c(Cl)cccc1NC(=O)Nc1cc([N+](=O)[O-])ccc1O [T2]

# Same assay, conditions: cell extract
row,transketolase inhibition in the enzymatic assay (in words),SMILES
1,no inhibition of transketolase,CCc1ccc(NC(=O)Nc2cccc([N+](=O)[O-])c2)c(CC)c1 [T2D]
2,poorly active,O=[N+]([O-])c1cccc(NC(=S)Nc2cc(Cl)ccc2O)c1 [T2E]
3,inactive,Cc1c(Cl)cccc1NC(=O)Nc1ccc(CC(=O)O)cc1 [T2C]
4,no activity,Cc1c(Cl)cccc1NC(=O)Nc1cccc(O)c1 [T2F]

# Same assay, conditions: cell extract; compound concentration varied 50 to 300 µM; read-out: IC50 Transketolase from cell extract
row,SMILES,IC50
1,O=C(Nc1ccccc1)Nc1cc(Cl)c([N+](=O)[O-])cc1O [T2B],100 µM

# Test system: HCT116 cells
# Test: MTT cell viability assay, HCT116
# Format: cell-based, human
# Conditions: 72 h incubation, read-out: IC50 cell viability (HCT116)
# Description: (§1) HCT116 human colon carcinoma cells (gift from Dr Capellà, Institut Català d'Oncologia, Barcelona, Spain) were grown in DMEM∶HAM F12 (1∶1), supplemented with 10% heat-inactivated foetal calf serum (FCS) (PAA Laboratories, Pasching, Austria), L-glutamine (2 mM), pyruvic acid (1 mM), non-essential aminoacids (1%) and antibiotics: 100 U×mL^−1 penicillin and 100 µg×mL^−1 streptomycin. HT29 human colon adenocarcinoma cells (obtained from the American Type Culture Collection -ATCC-) were grown in Dulbecco's Modified Eagle's Medium, 25 mM D-glucose, 4 mM L-glutamine supplemented with 10% heat-inactivated FCS, and antibiotics: 100 U×mL^−1 penicillin and 100 µg×mL^−1 streptomycin (Invitrogen, Paisley, UK). All cell cultures were carried out at 37°C in a humidified atmosphere with 5% CO2. Subconfluent monolayers of cells were used in all experiments.
# (§2) Cell viability was determined using the MTT assay, which is based on the ability of live cells to cleave the tetrazolium ring, thus producing formazan, which absorbs at 570 nm. 5000 cells/well HT29 cells or 1700 cells/well HCT116 cells were seeded into 96-well plates and incubated for 24 h prior to the addition of the different compounds at different concentrations, in triplicate. After incubation for 72 h, the supernatant was aspirated and 100 µL of filtered MTT (0.5 mg/mL) was added to each well. Following 1 h of incubation, the supernatant was removed and the formazan precipitated was dissolved in DMSO. Relative cell viability was measured by absorbance at 550 nm on an ELISA plate reader (Tecan Sunrise MR20-301, TECAN, Austria). Concentrations that inhibited cell growth by 50% (IC50) after treatment were determined.
row,SMILES,IC50
1,"Cc1ncc(C[n+]2csc(CCO)c2C)c(=O)[nH]1 [oxythiamine, reference compound]",8000 µM

# Same assay, conditions: Homo sapiens, HCT-116, 72 h incubation, read-out: IC50 Cell viability (HCT116 cells)
row,SMILES,IC50
1,O=C(Nc1ccccc1)Nc1cc(Cl)c([N+](=O)[O-])cc1O [T2B],12 µM
2,CCc1ccc(NC(=O)Nc2cccc([N+](=O)[O-])c2)c(CC)c1 [T2D],> 200 µM
3,O=[N+]([O-])c1cccc(NC(=S)Nc2cc(Cl)ccc2O)c1 [T2E],13 µM
4,Cc1c(Cl)cccc1NC(=O)Nc1ccc(CC(=O)O)cc1 [T2C],200 µM

# Further lines, results first:
row,IC50,SMILES
1,17 µM,Cc1ccc([N+](=O)[O-])cc1NC(=O)Nc1cccc2c(O)cccc12 [T2A]
2,9 µM,Cc1c(Cl)cccc1NC(=O)Nc1cc([N+](=O)[O-])ccc1O [T2]

# Test system: HT29 cells
# Test: MTT cell viability assay, HT29
# Format: cell-based, human
# Conditions: 72 h incubation, read-out: IC50 cell viability (HT29)
# Description: as §1, §2
row,SMILES,IC50
1,"Cc1ncc(C[n+]2csc(CCO)c2C)c(=O)[nH]1 [oxythiamine, reference compound]",8000 µM

# Same assay, conditions: Homo sapiens, HT-29, 72 h incubation, read-out: IC50 Cell viability (HT29 cells)
row,SMILES,IC50
1,O=C(Nc1ccccc1)Nc1cc(Cl)c([N+](=O)[O-])cc1O [T2B],6 µM
2,CCc1ccc(NC(=O)Nc2cccc([N+](=O)[O-])c2)c(CC)c1 [T2D],> 200 µM
3,O=[N+]([O-])c1cccc(NC(=S)Nc2cc(Cl)ccc2O)c1 [T2E],20 µM
4,Cc1c(Cl)cccc1NC(=O)Nc1ccc(CC(=O)O)cc1 [T2C],200 µM

# The next lines start with the values.
row,IC50,SMILES
1,15 µM,Cc1ccc([N+](=O)[O-])cc1NC(=O)Nc1cccc2c(O)cccc12 [T2A]
2,10 µM,Cc1c(Cl)cccc1NC(=O)Nc1cc([N+](=O)[O-])ccc1O [T2]
